# Test results taken from patent US20220193445A1, “PHOTOERADICATION OF MICROORGANISMS WITH PULSED PURPLE OR BLUE LIGHT” (SAN DIEGO STATE UNIVERSITY RESEARCH FOUNDATION, priority 2016, published 2022).
# Where “and” joins values, the source holds several entries; their conditions need not be identical. Equal values may be shown once.
# What was measured:
# [1] = tested on: GBS wild type strain COH1; assay: GBS survival with porphyrin supplementation and 30 min incubation (optional wash), with or without pulsed 450 nm light (Study 2); type: cell-based, Group B Streptococcus (GBS)
# Description: (§1) GBS wild type strain COH1 was added to 3 mL of Todd Hewitt broth and grown aerobically overnight at 37° C. From the overnight cultures, 500 uL of GBS was added to fresh Todd Hewitt broth and grown logarithmically at 37° C. until reaching a concentration of 10^8 CFU/mL. The culture was then centrifuged at 1300 rpm for three minutes, the supernatant was removed and discarded, and 1 mL of fresh Todd Hewitt broth was added.
# The culture was then split into three Eppendorf tubes—a first tube for GBS and second and third tubes for GBS with diluted porphyrins used for incubation. Diluted porphyrins (PPIX or CP III) were added into the second and third tubes and incubated for 30 minutes at 37° C. The third tube was then washed three times with phosphate-buffered saline (PBS) and centrifuged at 1300 rpm for three minutes, and the supernatant was removed and discarded. Serial dilutions of NaCl were made to obtain a suspension of GBS diluted to a concentration of 1×10^4 CFU/mL. The GBS were streaked onto Todd Hewitt agar plates.
# (§2) The lighted substrate was set to operate in 33% DF pulsed mode and driven with a constant current source. The average irradiance was 3 mW/cm^2. The pulse duration was 10 microseconds with an off time of 20 microseconds, and a pulse repetition rate of 33 kHz. The plates subject to light treatment were irradiated three times at […] with a radiant exposure of 7.56 J/cm^2 during each irradiation session (i.e., each irradiation session was 42 minutes with an incubation period therebetween of 30 minutes).
# (§3) After irradiation protocols were completed, the plates were placed upside down in the anaerobic chamber and incubated at 37° C. for 24 hours. The plates were photographed, colonies counted and statistics of percent survival recorded.
# [2] = tested on: GBS wild type strain COH1; assay: GBS survival with porphyrin supplementation, with or without pulsed 450 nm light (Study 1, no incubation); type: cell-based, Group B Streptococcus (GBS)
# Description: as §1, with “added. Serial dilutions of NaCl were made to obtain a suspension of GBS diluted to a concentration of 1×10^4 CFU/mL. The GBS were streaked onto Todd Hewitt agar plates both with and without the addition of diluted porphyrins (different concentrations of PPIX or CP III).” for “added.”
# as §2, with “there between” for “therebetween”
# as §3
# [3] = 0.2 mg/mL (incubated) + pulsed 450 nm light 7.56 J/cm^2, three irradiations
# [4] = 0.2 mg/mL (incubated), without any irradiation
# [5] = 0.05 mg/mL porphyrin + pulsed 450 nm light, 7.56 J/cm^2, 3 mW/cm^2, 33% DF, three irradiations
Molecule,"percent GBS survival compared to the control ([1]; 0.02 mg/mL (incubated and washed) + pulsed 450 nm light 7.56 J/cm^2, three irradiations)","percent GBS survival compared to the control ([1]; 0.02 mg/mL (incubated and washed), no irradiation)","percent GBS survival compared to the control ([1]; 0.02 mg/mL (incubated) + pulsed 450 nm light 7.56 J/cm^2, three irradiations)","percent GBS survival compared to the control ([1]; 0.02 mg/mL (incubated), without any irradiation)","percent GBS survival compared to the control ([1]; 0.08 mg/mL (incubated and washed) + pulsed 450 nm light 7.56 J/cm^2, three irradiations)","percent GBS survival compared to the control ([1]; 0.08 mg/mL (incubated and washed), no irradiation)","percent GBS survival compared to the control ([1]; 0.08 mg/mL (incubated) + pulsed 450 nm light 7.56 J/cm^2, three irradiations)","percent GBS survival compared to the control ([1]; 0.08 mg/mL (incubated), without any irradiation)","percent GBS survival compared to the control ([1]; 0.2 mg/mL (incubated and washed) + pulsed 450 nm light 7.56 J/cm^2, three irradiations)","percent GBS survival compared to the control ([1]; 0.2 mg/mL (incubated and washed), no irradiation)","percent GBS survival compared to the control [1, 3]","percent GBS survival compared to the control [1, 4]","percent GBS survival compared to the control ([2]; 0.02 mg/mL porphyrin + pulsed 450 nm light, 7.56 J/cm^2, 3 mW/cm^2, 33% DF, three irradiations) [%]","percent GBS survival compared to the control [2, 5]","percent GBS survival compared to the control ([1]; 0.05 mg/mL (incubated and washed) + pulsed 450 nm light 7.56 J/cm^2, three irradiations) [%]","percent GBS survival compared to the control ([1]; 0.05 mg/mL (incubated and washed), no irradiation)","percent GBS survival compared to the control ([1]; 0.05 mg/mL (incubated) + pulsed 450 nm light 7.56 J/cm^2, three irradiations) [%]","percent GBS survival compared to the control ([1]; 0.05 mg/mL (incubated), without any irradiation)","percent GBS survival compared to the control ([2]; 0.02 mg/mL porphyrin, without any irradiation)","percent GBS survival compared to the control ([2]; 0.05 mg/mL porphyrin, without any irradiation)"
"C=CC1=C(C)c2cc3[nH]c(cc4nc(cc5[nH]c(cc1n2)c(C)c5CCC(=O)O)C(CCC(=O)O)=C4C)c(C)c3C=C [PPIX, protoporphyrin IX]",approximately 18%,approximately 92%,approximately 68%,approximately 92%,approximately 40%,approximately 76%,approximately 52%,approximately 84%,approximately 10%,approximately 78%,approximately 50%,approximately 80%,0,3% and 0%,–,–,–,–,–,–
coproporphyrin III [CP III],–,–,–,–,–,–,–,–,–,–,0%,approximately 82%,–,0%,0,approximately 72%,0,approximately 90%,approximately 74%,approximately 84%
